Measured values: paper PMC7669869, “AdipoR1/AdipoR2 dual agonist recovers nonalcoholic steatohepatitis and related fibrosis via endoplasmic reticulum-mitochondria axis” (Nature Communications, 2020)
Several values for one entry are separate records, joined by “and”; a condition that tells them apart may be missing. Equal values may be shown once. Read-outs that look alike come from different tables or passages of the source. Each block holds one compound with its values, some of them ahead of it. Non-standard residues stand in square brackets, D forms with d. Residues, ends and D or L forms follow the SMILES beside them. No end group written: not given here. Nva = CCC[C@H](N)C(=O)O

Key:
HepG2 cells = experiment: PA induced lipid accumulation, Oil Red O staining; assay type: cell-based, human; settings: HepG2, 0.25 mM PA + 200 μM peptide, 24 h; in words
Experimental: Hepatoma carcinoma cell line HepG2 and human hepatic activated stellate cell line LX2 used in this study were purchased from Type Culture Collection of the Chinese Academy of Sciences (Shanghai, China). Cells were cultured in Dulbecco’s modified Eagle’s medium (DMEM) with 10% fetal bovine serum (FBS), supplemented with 1% penicillin–streptomycin (ThermoFisher Scientific, USA) at 37 °C in a humidified atmosphere of 5% CO2. In PA (Sigma, USA) induced lipid accumulation cell model, HepG2 cells were seeded into a 6-well plate at 5E5 cells per well. 0.25 mM PA and/or 200 μM candidate peptides were co-incubated with cells for 24 h. Then Oil Red O staining was performed to evaluate the accumulation of lipid droplets. BSA (Sigma, USA) was used in this experiment as the negative control. For LX2 cells, 2E5 cells were seeded, then the adherent cells were exposed to 200 μM candidate peptides for another 48 h. Next, the cell protein was obtained and western blotting was performed. Candidate peptides were diluted in DMEM in a stock concentration of 1 M.

[1] = Pharmacokinetic assay in SD rats; assay type: in vivo, rat
Experimental: Male SpragueDawley (SD) rats were randomly divided into two groups (n = 3 per group) and received a single intravenous dose of JT003 (0.5 mg/kg) or ADP355 (1.0 mg kg^−1) respectively. Blood samples were collected at 5, 15, 30, 45 min and 1, 2, 3 h following the injection, and then were immediately centrifuged (4000g, 10 min, 4 °C) to obtain plasma samples. Plasma concentrations of the two peptides were measured by LC-MS/MS (ThermoFisher Scientific, USA). Pharmacokinetic parameters of JT003 and ADP355 were calculated using non-compartmental analysis in Phoenix WinNonlin (version 8.0, Pharsight, USA). The concentration values less than the LLOQ were set to zero for the analysis.

[2] = test system: CCl4 induced liver fibrosis mice; experiment: CCl4 induced liver fibrosis mice: liver appearance, body weight, HE, Sirius red, IHC (αSMA, COL1α1, CD68); assay type: in vivo, mouse; settings: CCl4 induced liver fibrosis mice; administration dosages of 0.5 mg kg−1 and 2 mg kg−1; in words
Experimental: Male mice liver fibrosis was induced by intraperitoneal injection of 20% CCl4 (Sigma, USA) diluted in corn oil (Aladdin, China) every 3 days for 6 weeks (n = 6; 5 ml kg^−1 body weight). Mice injected with equivalent volume of corn oil serves as control group (n = 6). Liver fibrosis mice treated with JT003 for 3 weeks were used to evaluated the pharmacological effects (n = 6; 500 μg kg^−1; daily intraperitoneal injection).
The levels of TG and HYP in liver tissue were detected with certain commercial assay kit (Nanjing Jiancheng Bioengineering Institute, China). Formalin-fixed liver tissues were embedded in paraffin, sectioned into 5 μm slices. After deparaffinization and rehydration of the section slices, they were stained with Haematoxylin and Eosin or Periodic Acid-Schiff. For the detection of liver collagen content, Sirius Red staining for collagen was performed. OCT-embedded frozen liver tissues were sectioned into 12 μm slices, and Oil Red O staining was performed. The cryostat-cut slices were stained with freshly prepared Oil Red O working solution for 7 min Two independent experimenters who were blinded to the treatment evaluated the staining slides and analyzed the score for steatosis, glucogen accumulation and collagen proliferation area.
Paraffin-embedded liver slices were deparaffinized and rehydrated, antigen retrieval was performed under the high pressure and temperature in 0.01 M sodium citrate buffer (pH = 6.0). To quench the endogenous peroxidase activity, the slices were then incubated with 1% hydrogen peroxide in methanol for 10 min in room temperature. Then slices were incubated with corresponding primary antibodies. After washing, HRP-conjugated secondary antibodies specific to the species of the primary antibodies were used. After the section were developed with DAB, hematoxylin staining was performed for cell counting.

[3] = Serum stability assay (RP-HPLC); assay type: in vitro ADME; settings: for Fraction of peptide remaining, Supplementary Figure 5: mouse serum, time 0 (unit not given); for remaining at 0.5 h, 5 mM: time 0.5 (unit inferred); for remaining at 1 h, 5 mM: time 1 (unit inferred); for remaining at 1.5 h, 5 mM: time 1.5 (unit inferred); for remaining at 2 h, 5 mM: time 2 (unit inferred); for remaining at 2.5 h, 5 mM: time 2.5 (unit inferred); for remaining at 4 h, 5 mM: time 4 (unit inferred); for remaining at 6 h, 5 mM: time 6 (unit inferred)
Experimental: The stability of candidate peptides was investigated following procedure. […] Ice-cold acetonitrile was added to terminate the reaction. Vortex and stand for 1 min, deionized water with 1% TFA was added to the mixture to further terminate the reaction. Mixtures were then centrifuged (13,000g, 10 min) to obtain the supernatant. RP-HPLC-MS was applied to analysis the content of candidate peptides. The serum stability of candidate peptides was represented as the retention rate of each peptide.

[4] = test system: AdipoR1 and AdipoR2 on HepG2 and LX2 cells; experiment: Cell confocal imaging, receptor binding of FITC labeled peptide (with AdipoR siRNA); set-up: species or system human; settings: 37 °C, 2 or 4 h, AdipoR1/AdipoR2 siRNA as control, in words
Experimental: For in vitro receptor binding assay, 4E4 HepG2 cells or 2E4 LX2 cells were seeded on 35 mm glass bottom dish with 150 μL complete medium. Then cells were incubated with FITC labeled peptide for 4 h. The nuclei were stained with Hoechst 33342 (ThermoFisher, Scientific, USA). After washing with PBS, cells were visualized in a laser confocal microscope (Olympus FV3000, Japan). Cells with suppressed AdipoR1 and AdipoR2 expression with each specific siRNA were used as negative control.
AdipoR1 and AdipoR2 siRNA as well as mock siRNA were chemically synthesized (GenePharma, China) and transfected into 60–70% confluent HepG2 and LX2 cells using Lipofectamine 3000 (ThermoFisher Scientific, USA). Dilution of siRNA and Lipofectamine 3000 reagents as well as the transfection of cells were performed following the manufacturer’s protocol. For HepG2 cell model, 5E5 cells were plated in 6-well plates and transfected with 5 μL of 20 μM stock siRNA. At 48 h following transfection, the cells were processed for 0.25 mM PA and/or 200 μM JT003 treated for another 24 h. BSA was used as the negative control. For LX2 cell model, 2E5 cells were plated in 6-well plates and transfected with 5 μL of 20 μM stock siRNA. At 48 h following transfection, the cells were processed for JT003 or PBS treated for another 48 h. Next, cells were harvested for either western blot or qPCR assay.

[5] = Sprague-Dawley, rat, male SD rats, single iv dose: JT003 0.5 mg/kg, ADP355 1.0 mg/kg, plasma, LC-MS/MS, non-compartmental, Mean ± SD, n = 3-6
[6] = mouse, replicate 1, read-out: Fraction of peptide remaining, Supplementary Figure 5
[7] = mouse, replicate 2, read-out: Fraction of peptide remaining, Supplementary Figure 5
[8] = mouse, replicate 3, read-out: Fraction of peptide remaining, Supplementary Figure 5

- time for which plasma concentrations were measurable ([1]; SD rats, after intravenous administration, ADP355 1.0 mg/kg): 45 min
- half-life ([1]; SD rats, iv, authors' response to reviewers): 6 min
- AUC(0-inf) [1, 5]: 134 ± 19.9 ng·h/mL
- AUC(0-t) [1, 5]: 134 ± 19.9 ng·h/mL
- MRT [1, 5]: 5.4 ± 0.6 min
- clearance [1, 5]: 126 mL/min/kg
- Vd ([1]; Sprague-Dawley, rat, male SD rats, single iv dose: JT003 0.5 mg/kg, ADP355 1.0 mg/kg, plasma, LC-MS/MS, non-compartmental, Mean ± SD, n = 3-6, read-out: V): 1.06 ± 0.21 L/kg
- t1/2 ([1]; male SD rats, single iv dose: JT003 0.5 mg/kg, ADP355 1.0 mg/kg, plasma, LC-MS/MS, non-compartmental, Mean ± SD, n = 3-6 (n = 3 per group)): 6 ± 0.6 min and 6 min
Compound: CCC[C@H](NC(=O)[C@@H]1CCCN1C(=O)[C@@H](NC(=O)[C@H](N)CC(N)=O)[C@@H](C)CC)C(=O)N[C@@H](CC(C)C)C(=O)N[C@@H](Cc1ccc(O)cc1)C(=O)N[C@H](CO)C(=O)N[C@@H](Cc1ccccc1)C(=O)N[C@@H](C)C(=O)N[C@H](CO)C(N)=O [ADP355] (H-[dN]IP[Nva]LY[dS]FA[dS]-NH2; N-terminus and C-terminus assumed)
- lipid droplets accumulation caused by PA (Oil Red O) (HepG2 cells): could be reduced
- inflammation, necrosis and fibrosis area (HE and sirius red staining) [2]: not notably raised

- Fraction of peptide remaining, Supplementary Figure 5 ([3]; replicate 1): 0.9901
- Fraction of peptide remaining, Supplementary Figure 5 ([3]; replicate 2): 1.005
- Fraction of peptide remaining, Supplementary Figure 5 ([3]; replicate 3): 0.9939
- remaining at 0.5 h, 5 mM [3, 6]: 96.7%
- remaining at 0.5 h, 5 mM [3, 7]: 98.6%
- remaining at 0.5 h, 5 mM [3, 8]: 94.9%
- remaining at 1 h, 5 mM [3, 6]: 82.5%
- remaining at 1 h, 5 mM [3, 7]: 84%
- remaining at 1 h, 5 mM [3, 8]: 83.1%
- remaining at 1.5 h, 5 mM [3, 6]: 80.8%
- remaining at 1.5 h, 5 mM [3, 7]: 82.6%
- remaining at 1.5 h, 5 mM [3, 8]: 83.7%
- remaining at 2 h, 5 mM [3, 6]: 50.5%
- remaining at 2 h, 5 mM [3, 7]: 53.4%
- remaining at 2 h, 5 mM [3, 8]: 47.2%
- remaining at 2.5 h, 5 mM [3, 6]: 26.1%
- remaining at 2.5 h, 5 mM [3, 7]: 27.2%
- remaining at 2.5 h, 5 mM [3, 8]: 27.2%
- remaining at 3 h, 5 mM ([3]; mouse, time 3 (unit inferred), replicate 1, read-out: Fraction of peptide remaining, Supplementary Figure 5): 29.9%
- remaining at 3.5 h, 5 mM ([3]; mouse, time 3.5 (unit inferred), replicate 1, read-out: Fraction of peptide remaining, Supplementary Figure 5): 29.3%
- remaining at 4 h, 5 mM [3, 6]: 23.9%
- remaining at 4 h, 5 mM [3, 7]: 24.2%
- remaining at 4 h, 5 mM [3, 8]: 23.5%
- remaining at 6 h, 5 mM [3, 6]: 2.28%
- remaining at 6 h, 5 mM [3, 7]: 2.13%
- remaining at 6 h, 5 mM [3, 8]: 2.33%
Compound: PGLYYFD-NH2 (C-terminus assumed) [Pep70]

Compound: CCC[C@H](NC(=O)[C@@H]1CCCN1)C(=O)N[C@@H](CC(C)C)C(=O)N[C@@H](Cc1ccc(O)cc1)C(=O)N[C@@H](CO)C(=O)N[C@@H](Cc1ccccc1)C(=O)N[C@@H](CC(=O)O)C(N)=O [JT006] (H-P[Nva]LYSFD-NH2)
- lipid droplets accumulation caused by PA (Oil Red O) (HepG2 cells): little prevention of palmitic acid induced lipid droplets
- binding to AdipoRs on the cell membrane (confocal, FITC) [4]: could not bind to the AdipoRs specifically
